Assay results reported in patent US20250230193A1, “CYCLIC COMPOUND HAVING SELECTIVE KRAS INHIBITORY EFFECT ON HRAS AND NRAS” (CHUGAI SEIYAKU KABUSHIKI KAISHA, priority 2022, published 2025).
*1 amine or outer side, *2 acyl side, *3 side chain or, on linkers, in order; H or OH if unused. Where a SMILES comes first, the peptide text is derived from it. Bridges are numbered along the chain shown (N, C = ends). [ ]: non-standard residue; d: D form. The star is where a group is joined. hPhe(3-Cl-4-CF3) = N[C@@H](CCc1ccc(C(F)(F)F)c(Cl)c1)C(=O)O; X37 = O=C([C@H](Cc1ccc(C(F)(F)F)cc1)N(CC1CCC1)[*:1])[*:2]; NPrPhe(4-CF3) = CCCN[C@@H](Cc1ccc(C(F)(F)F)cc1)C(=O)O; NMeGly(cPent) = CN[C@H](C(=O)O)C1CCCC1; Pro(4,4-F2) = O=C(O)[C@@H]1CC(F)(F)CN1; NMeD = CN[C@@H](CC(=O)O)C(=O)O; NMeL = CN[C@@H](CC(C)C)C(=O)O; Morpholide = C1CN(*)CCO1; NMeA = CN[C@@H](C)C(=O)O; Ac5c = NC1(C(=O)O)CCCC1; Aze = O=C(O)[C@@H]1CCN1; Ac4c = NC1(C(=O)O)CCC1; Sar = CNCC(=O)O

What was measured:
[1] = target: GDP-bound HRAS wild-type protein (Homo sapiens, UniProt P01112); experiment: Binding to HRAS by surface plasmon resonance (SPR), Single Cycle Kinetics; details: SPR
[2] = target: GDP-bound NRAS wild-type protein (Homo sapiens, UniProt P01111); experiment: Binding to NRAS by surface plasmon resonance (SPR), Single Cycle Kinetics; details: SPR
[3] = GDP-bound HRAS wild-type vs GDP-bound KRAS wild-type
[4] = GDP-bound NRAS wild-type vs GDP-bound KRAS wild-type

Sequence of GDP-bound NRAS wild-type protein (P01111 whole entry): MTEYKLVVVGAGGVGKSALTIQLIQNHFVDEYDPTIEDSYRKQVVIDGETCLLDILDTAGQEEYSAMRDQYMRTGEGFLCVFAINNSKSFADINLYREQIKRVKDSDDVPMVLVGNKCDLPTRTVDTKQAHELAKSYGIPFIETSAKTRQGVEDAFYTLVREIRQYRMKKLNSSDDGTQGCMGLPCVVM
Sequence of GDP-bound HRAS wild-type protein (P01112 whole entry): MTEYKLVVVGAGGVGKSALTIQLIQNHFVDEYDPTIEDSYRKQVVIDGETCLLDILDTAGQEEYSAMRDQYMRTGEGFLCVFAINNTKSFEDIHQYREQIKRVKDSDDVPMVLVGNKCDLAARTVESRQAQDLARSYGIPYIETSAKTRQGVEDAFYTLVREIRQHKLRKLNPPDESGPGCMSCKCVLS

Row | Compound | HRAS/KRAS (ratio of KD for GDP-bound HRAS wild-type to KD for KRAS) [1] | NRAS/KRAS (ratio of KD for GDP-bound NRAS wild-type to KD for KRAS) [2] | HRAS/KRAS (ratio of KD value for HRAS to KD value for KRAS) [1, 3] | NRAS/KRAS (ratio of KD value for NRAS to KD value for KRAS) [2, 4] | also measured
1 | CCCN1C(=O)CN(C)C(=O)CNC(=O)[C@H]([C@@H](C)CC)NC(=O)[C@H](CC(C)C)N(C)C(=O)C[C@@H](C(=O)N2CCOCC2)N(C)C(=O)[C@H](C2CCCC2)N(C)C(=O)C2(CCC2)NC(=O)[C@@H]2CC(F)(F)CN2C(=O)[C@H](CCc2ccc(C(F)(F)F)c(Cl)c2)NC(=O)CN(C)C(=O)[C@@H]1Cc1ccc(C(F)(F)F)cc1 [PP0395] ([NMeL]IG[Sar][NPrPhe(4-CF3)][Sar][hPhe(3-Cl-4-CF3)][Pro(4,4-F2)][Ac4c][NMeGly(cPent)][NMeD]-Morpholide; lactam N-11) | C (A compound having a KD ratio of 0.1 or more and less than 3 is denoted as C) | B (a compound having 3 or more and less than 10 is denoted as B) |  |  | 
2 | CCCN1C(=O)[C@@H]2CCN2C(=O)[C@H](C)N(C)C(=O)[C@H]([C@@H](C)CC)NC(=O)[C@H](CC(C)C)N(C)C(=O)C[C@@H](C(=O)N2CCOCC2)N(C)C(=O)[C@H](C2CCCC2)N(C)C(=O)C2(CCCC2)NC(=O)[C@@H]2CCCN2C(=O)[C@H](CCc2ccc(C(F)(F)F)c(Cl)c2)NC(=O)CN(C)C(=O)[C@@H]1Cc1ccc(C(F)(F)F)cc1 [PP0053] ([NMeL]I[NMeA][Aze][NPrPhe(4-CF3)][Sar][hPhe(3-Cl-4-CF3)]P[Ac5c][NMeGly(cPent)][NMeD]-Morpholide; lactam N-11) | C (A compound having a KD ratio of 0.1 or more and less than 3 is denoted as C) | C (A compound having a KD ratio of 0.1 or more and less than 3 is denoted as C) |  |  | 
3 | CCC[C@H]1C(=O)N[C@@H]([C@@H](C)CC)C(=O)N(C)CC(=O)N(C)[C@H]2C/C=C\CCN(C2=O)[C@@H](Cc2ccc(C(F)(F)F)cc2)C(=O)N(C)CC(=O)N[C@@H](CCc2cc(F)c(C(F)(F)F)c(F)c2)C(=O)N(C)[C@@H](COC)C(=O)NC2(CC(C)(C)C2)C(=O)N(C)[C@@H](C2CCCC2)C(=O)N(C)[C@H](C(=O)N(C)C)CC(=O)N1C [PP1936] |  |  | A (a compound having 10 or more and less than 20 is denoted as A) | AA (a compound having 20 or more is denoted as AA) | 
4 | CCCN(C)C(=O)[C@@H]1CC(=O)N(C)[C@@H](CCOC)C(=O)N[C@@H]([C@@H](C)CC)C(=O)N(C)CC(=O)N(C)[C@H]2C/C=C\CCN(C2=O)[C@@H](Cc2ccc(C(F)(F)F)cc2)C(=O)N(C)CC(=O)N[C@@H](CCc2cc(F)c(C(F)(F)F)c(F)c2)C(=O)N2C[C@@H](C)C[C@H]2C(=O)NC2(CC(C)(C)C2)C(=O)N(C)[C@@H](C2CCCC2)C(=O)N1C [PP1974] |  |  | A (a compound having 10 or more and less than 20 is denoted as A) | A (a compound having 10 or more and less than 20 is denoted as A) | 
5 | CC[C@H](C)[C@@H]1NC(=O)[C@H](COC)N(C)C(=O)C[C@@H](C(=O)N(C)C)N(C)C(=O)[C@H](C2CCCC2)N(C)C(=O)C2(CC(C)(C)C2)NC(=O)[C@@H]2C[C@H](C)CN2C(=O)[C@H](CCc2ccc(C(F)(F)F)c(OC)c2)NC(=O)CN(C)C(=O)[C@H](Cc2ccc(C)cc2)N2CC/C=C\C[C@@H](C2=O)N(C)C(=O)CN(C)C1=O [PP2385] |  |  |  |  | HRAS/KRAS (ratio of KD value with respect to HRAS to KD value with respect to KRAS) [1, 3]: B (a compound having 3 or more and less than 10 is denoted as B); NRAS/KRAS (ratio of KD value with respect to NRAS to KD value with respect to KRAS) [2, 4]: A (a compound having 10 or more and less than 20 is denoted as A)
6 | CC[C@H](C)[C@@H]1NC(=O)[C@H](CC(C)C)N(C)C(=O)C[C@@H](C(=O)N2CCOCC2)N(C)C(=O)[C@H](C2CCCC2)N(C)C(=O)C2(CCCC2)NC(=O)[C@@H]2CCCN2C(=O)[C@H](CCc2ccc(C(F)(F)F)c(Cl)c2)NC(=O)CN(C)C(=O)[C@H](Cc2ccc(C(F)(F)F)cc2)N(CC2CCC2)C(=O)CN(C)C(=O)CN(C)C1=O [PP0123] ([NMeL]I[Sar][Sar][X37][Sar][hPhe(3-Cl-4-CF3)]P[Ac5c][NMeGly(cPent)][NMeD]-Morpholide; lactam N-11) | C (A compound having a KD ratio of 0.1 or more and less than 3 is denoted as C) | B (a compound having 3 or more and less than 10 is denoted as B) |  |  | 
7 | CC[C@H](C)[C@@H]1NC(=O)[C@H](CC)N(C)C(=O)C[C@@H](C(=O)N(CC)CC)N(C)C(=O)[C@H](C2CCCC2)N(C)C(=O)C2(CC(C)(C)C2)NC(=O)[C@@H]2C[C@H](C)CN2C(=O)[C@H](CCc2ccc(C(F)(F)F)c(OC)c2)NC(=O)CN(C)C(=O)[C@H](Cc2ccc(C)cc2)N2CC/C=C\C[C@@H](C2=O)N(C)C(=O)CN(C)C1=O [PP1839] |  |  | B (a compound having 3 or more and less than 10 is denoted as B) | A (a compound having 10 or more and less than 20 is denoted as A) | 
